Laboratory results taken from patent US8680159B2, “Bradykinin 1 receptor modulating compounds” (Gruenenthal GmbH, priority 2010, dated 2014).

Molecular target: T1, B1R receptor of the rat (CHO K1 cells stably transfected with the B1R gene of the rat) (Rattus norvegicus, UniProt P97583)
T1 construct: expressed in transfected cells; host or cells: CHO K1 cells (Chinese hamster ovary), stably transfected
T1 sequence (P97583 1-337): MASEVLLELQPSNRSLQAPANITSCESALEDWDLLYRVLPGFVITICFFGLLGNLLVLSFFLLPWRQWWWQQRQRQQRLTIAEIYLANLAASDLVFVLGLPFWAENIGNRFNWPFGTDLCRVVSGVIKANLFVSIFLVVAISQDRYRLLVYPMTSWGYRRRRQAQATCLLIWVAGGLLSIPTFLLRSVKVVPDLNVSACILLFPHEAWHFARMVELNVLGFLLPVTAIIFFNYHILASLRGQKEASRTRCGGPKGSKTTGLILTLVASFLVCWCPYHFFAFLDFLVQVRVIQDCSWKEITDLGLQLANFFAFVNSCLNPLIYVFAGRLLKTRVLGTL
Test: Functional study on the bradykinin receptor 1 (B1R), Ca2+ fluorescence (Fluo-4) FLIPR/Novostar assay, rB1R cells
Assay type: cell-based
Conditions: 10 μM
Experimental: The agonistic or antagonistic action of substances can be quantified on the bradykinin receptor 1 (B1R) of the species human and rat using ectopically expressing cell lines (CHO K1 cells) and with the aid of a Ca^2+-sensitive dye (Fluo-4) using a fluorescent imaging plate reader (FLIPR). The indication in % activation is based on the Ca^2+ signal after addition of Lys-Des-Arg^9-bradykinin (0.5 nM) or Des-Arg^9-bradykinin (100 nM). Antagonists lead to suppression of the Ca^2+ influx after the addition of the agonist. % Inhibition compared with the maximum achievable inhibition is indicated.
The agonistic or antagonistic action of substances can be determined on the bradykinin receptor 1 (B1R) of the species human and rat using the following assay. According to this assay, the increase in intracellular Ca^2+ following administration of a B1R agonist is quantified with the aid of a Ca^2+-sensitive dye (Fluo-4 type, Molecular Probes Europe BV, Leiden, Netherlands) using a Fluorescent Imaging Plate Reader (FLIPR, Molecular Devices, Sunnyvale, USA) and/or using a Novostar (BMG Labtech GmbH, Offenburg, Germany).
Chinese hamster ovary cells (CHO K1 cells) which have been stably transfected with the human B1R gene (hB1R cells) or with the B1R gene of the rat (rB1R cells) are used. For functional studies, the cells are plated out on black 96-well plates having a clear base (BD Biosciences, Heidelberg, Germany or Greiner, Frickenhausen, Germany) in a density of 20,000-35,000 cells/well. The cells are left overnight at 37° C. and with 5% CO2 in culture medium (hB1R cells: Nutrient Mixture Ham's F12, Gibco Invitrogen GmbH, Karlsruhe, Germany or DMEM, Sigma-Aldrich, Taufkirchen, Germany; rB1R cells: D-MEM/F12, Gibco Invitrogen GmbH, Karlsruhe, Germany), with 10 vol. % FBS (fetal bovine serum, Gibco Invitrogen GmbH, Karlsruhe, Germany or PAN Biotech GmbH, Aidenbach, Germany). On the following day, the cells are loaded for 60 minutes at 37° C. with 2.13 μM Fluo-4 (Molecular Probes Europe BV, Leiden, Netherlands) in HBSS buffer (Hank's buffered saline solution, Gibco Invitrogen GmbH, Karlsruhe, Germany) […] (Sigma-Aldrich, Taufkirchen, Germany) and 10 mM HEPES (Sigma-Aldrich, Taufkirchen, Germany). The plates are then washed twice with HBSS buffer, and HBSS buffer additionally containing 0.1% BSA (bovine serum albumin; Sigma-Aldrich, Taufkirchen, Germany), 5.6 mM glucose and 0.05% gelatin (Merck KGaA, Darmstadt, Germany) is added to the plates. After incubation for a further 20 minutes at room temperature, the plates are inserted into the FLIPR or Novostar for Ca^2+ measurement. Alternatively, washing is carried out with buffer A (15 mM HEPES, 80 mM NaCl, 5 mM KCl, 1.2 mM CaCl2, 0.7 mM MgSO4, 2 g/l glucose, 2.5 mM probenecid) followed by loading with buffer A with added 2.5 μM Fluo-4 and 0.025% Pluronic F127 (Sigma-Aldrich, Taufkirchen, Germany). The cells are then washed twice with buffer A and incubated for 30 minutes at room temperature with buffer A additionally containing 0.05% BSA and 0.05% gelatin and are then inserted into the FLIPR or Novostar for Ca^2+ measurement. The Ca^2+-dependent fluorescence is measured before and after the addition of substances (λex=488 nm, λem=540 nm). Quantification is carried out by measuring the highest fluorescence intensity (FC, fluorescence counts) over time.
The FLIPR protocol consists of 2 substance additions, which are pipetted in the FLIPR. In the case of measurements using the Novostar, only the second substance addition is pipetted in the device. Both devices measure the fluorescence intensity over time. Test substances (10 μM) are first pipetted onto the cells and the intracellular Ca^2+ increase is compared with the control (hB1R: Lys-Des-Arg^9-bradykinin>=50 nM; rB1R: Des-Arg^9-bradykinin>=1 μM). This gives the % activation, based on the Ca^2+ signal after addition of Lys-Des-Arg^9-bradykinin (>=50 nM) or Des-Arg^9-bradykinin (>=1 μM). […]

| % Inhibition (r-B1R) at 10 μM | Structure (SMILES) |
| --- | --- |
| 110% | CN(C(=O)c1ccc2c(c1)C(NC(=O)c1c(Cl)cccc1C(F)(F)F)CCC2)C1CCN(c2ccncc2)CC1 (stereo not shown) [CC_H-249, 8-[[2-Chloro-6-(trifluoromethyl)-benzoyl]amino]-N-methyl-N-(1-pyridin-4-yl-piperidin-4-yl)-5,6,7,8-tetrahydro-naphthalene-2-carboxylic acid amide] |

Same assay, conditions: CHO-K1, 10 μM, read-out: % Inhibition (r-B1R) at 10 μM

| Structure (SMILES) | inhibition at 10 µM |
| --- | --- |
| CN(C(=O)c1ccc2c(c1)C(NC(=O)c1cc(C(F)(F)F)ccc1Cl)CCC2)C1CCN(c2ccncc2)CC1 (stereo not shown) [CC_H-247, 8-[[2-Chloro-5-(trifluoromethyl)-benzoyl]amino]-N-methyl-N-(1-pyridin-4-yl-piperidin-4-yl)-5,6,7,8-tetrahydro-naphthalene-2-carboxylic acid amide] | 112% |
| Cc1ccc(F)c(C(=O)NC2CCCc3ccc(C(=O)N(C)C4CCN(c5ccncc5)CC4)cc32)c1Cl (stereo not shown) [CC_H-248, 8-[(2-Chloro-6-fluoro-3-methyl-benzoyl)amino]-N-methyl-N-(1-pyridin-4-yl-piperidin-4-yl)-5,6,7,8-tetrahydro-naphthalene-2-carboxylic acid amide] | 111% |
| CN(C(=O)c1ccc2c(c1)C(NC(=O)C1CC1)CCC2)C1CCN(c2ccncc2)CC1 (stereo not shown) [CC_H-250, 8-(Cyclopropanecarbonylamino)-N-methyl-N-(1-pyridin-4-yl-piperidin-4-yl)-5,6,7,8-tetrahydro-naphthalene-2-carboxylic acid amide] | 103% |
| CN(C(=O)c1ccc2c(c1)C(NC(=O)CC(C)(C)C)CCC2)C1CCN(c2ccncc2)CC1 (stereo not shown) [CC_H-251, 8-(3,3-Dimethyl-butanoylamino)-N-methyl-N-(1-pyridin-4-yl-piperidin-4-yl)-5,6,7,8-tetrahydro-naphthalene-2-carboxylic acid amide] | 111% |
| COCC(=O)NC1CCCc2ccc(C(=O)N(C)C3CCN(c4ccncc4)CC3)cc21 (stereo not shown) [CC_H-252, 8-[(2-Methoxy-acetyl)amino]-N-methyl-N-(1-pyridin-4-yl-piperidin-4-yl)-5,6,7,8-tetrahydro-naphthalene-2-carboxylic acid amide] | 107% |
| CC(=O)NC1CCCc2ccc(C(=O)N(C)C3CCN(c4ccncc4)CC3)cc21 (stereo not shown) [CC_H-253, 8-Acetylamino-N-methyl-N-(1-pyridin-4-yl-piperidin-4-yl)-5,6,7,8-tetrahydro-naphthalene-2-carboxylic acid amide] | 110% |
| CN(C(=O)c1ccc2c(c1)C(NC(=O)c1cccc(C(F)(F)F)c1Cl)CCC2)C1CCN(c2ccncc2)CC1 (stereo not shown) [CC_H-254, 8-[[2-Chloro-3-(trifluoromethyl)-benzoyl]amino]-N-methyl-N-(1-pyridin-4-yl-piperidin-4-yl)-5,6,7,8-tetrahydro-naphthalene-2-carboxylic acid amide] | 111% |

The remaining lines, values ahead:

| inhibition at 10 µM | Structure (SMILES) |
| --- | --- |
| 104% | CN(C(=O)c1ccc2c(c1)C(NC(=O)Nc1ccccc1Cl)CCC2)C1CCN(c2ccncc2)CC1 (stereo not shown) [CC_H-255, 8-[[(2-Chlorophenyl)-carbamoyl]amino]-N-methyl-N-(1-pyridin-4-yl-piperidin-4-yl)-5,6,7,8-tetrahydro-naphthalene-2-carboxylic acid amide] |
| 96% | CN(C(=O)c1ccc2c(c1)C(NC(=O)Nc1cccc(Cl)c1)CCC2)C1CCN(c2ccncc2)CC1 (stereo not shown) [CC_H-256, 8-[[(3-Chlorophenyl)-carbamoyl]amino]-N-methyl-N-(1-pyridin-4-yl-piperidin-4-yl)-5,6,7,8-tetrahydro-naphthalene-2-carboxylic acid amide] |
| 107% | CN(C(=O)c1ccc2c(c1)C(NC(=O)Nc1c(Cl)cccc1Cl)CCC2)C1CCN(c2ccncc2)CC1 (stereo not shown) [CC_H-257, 8-[[(2,6-Dichloro-phenyl)-carbamoyl]amino]-N-methyl-N-(1-pyridin-4-yl-piperidin-4-yl)-5,6,7,8-tetrahydro-naphthalene-2-carboxylic acid amide] |
| 106% | CN(C(=O)c1ccc2c(c1)C(NC(=O)Nc1cccc(Cl)c1Cl)CCC2)C1CCN(c2ccncc2)CC1 (stereo not shown) [CC_H-258, 8-[[(2,3-Dichloro-phenyl)-carbamoyl]amino]-N-methyl-N-(1-pyridin-4-yl-piperidin-4-yl)-5,6,7,8-tetrahydro-naphthalene-2-carboxylic acid amide] |
| 100% | CN(C(=O)c1ccc2c(c1)C(NC(=O)Nc1cc(Cl)ccc1Cl)CCC2)C1CCN(c2ccncc2)CC1 (stereo not shown) [CC_H-259, 8-[[(2,5-Dichloro-phenyl)-carbamoyl]amino]-N-methyl-N-(1-pyridin-4-yl-piperidin-4-yl)-5,6,7,8-tetrahydro-naphthalene-2-carboxylic acid amide] |
| 61% | CN(C(=O)c1ccc2c(c1)C(NC(=O)Nc1cc(Cl)cc(Cl)c1)CCC2)C1CCN(c2ccncc2)CC1 (stereo not shown) [CC_H-260, 8-[[(3,5-Dichloro-phenyl)-carbamoyl]amino]-N-methyl-N-(1-pyridin-4-yl-piperidin-4-yl)-5,6,7,8-tetrahydro-naphthalene-2-carboxylic acid amide] |
| 103% | CN(C(=O)c1ccc2c(c1)C(NC(=O)Nc1cc(C(F)(F)F)ccc1Cl)CCC2)C1CCN(c2ccncc2)CC1 (stereo not shown) [CC_H-261, 8-[[[2-Chloro-5-(trifluoromethyl)-phenyl]-carbamoyl]amino]-N-methyl-N-(1-pyridin-4-yl-piperidin-4-yl)-5,6,7,8-tetrahydro-naphthalene-2-carboxylic acid amide] |
| 82% | CN(C(=O)c1ccc2c(c1)C(NC(=O)Nc1ccc(Cl)cc1Cl)CCC2)C1CCN(c2ccncc2)CC1 (stereo not shown) [CC_H-262, 8-[[(2,4-Dichlorophenyl)-carbamoyl]amino]-N-methyl-N-(1-pyridin-4-yl-piperidin-4-yl)-5,6,7,8-tetrahydro-naphthalene-2-carboxylic acid amide] |
| 105% | CN(C(=O)c1ccc2c(c1)C(NC(=O)Nc1ccc(F)c(Cl)c1)CCC2)C1CCN(c2ccncc2)CC1 (stereo not shown) [CC_H-265, 8-[[(3-Chloro-4-fluoro-phenyl)-carbamoyl]amino]-N-methyl-N-(1-pyridin-4-yl-piperidin-4-yl)-5,6,7,8-tetrahydro-naphthalene-2-carboxylic acid amide] |
| 63% | Cc1ccc(NC(=O)NC2CCCc3ccc(C(=O)N(C)C4CCN(c5ccncc5)CC4)cc32)c(C)c1 (stereo not shown) [CC_H-266, 8-[[(2,4-Dimethyl-phenyl)-carbamoyl]amino]-N-methyl-N-(1-pyridin-4-yl-piperidin-4-yl)-5,6,7,8-tetrahydro-naphthalene-2-carboxylic acid amide] |
| 110% | CN(C(=O)NC1CCCc2ccc(C(=O)N(C)C3CCN(c4ccncc4)CC3)cc21)c1ccccc1Cl (stereo not shown) [CC_H-268, 8-[[(2-Chlorophenyl)-methyl-carbamoyl]amino]-N-methyl-N-(1-pyridin-4-yl-piperidin-4-yl)-5,6,7,8-tetrahydro-naphthalene-2-carboxylic acid amide] |
